Assay results reported in PubChem BioAssay (NCI).
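Following 48 hours of exposure in 96-well plates, responses at five concentrations were used to interpolate endpoints linearly. The concentration for 50% growth inhibition is given as GI50. The concentration for full growth arrest is given as TGI.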

Assays:
Experiment in all cases: NCI tumour cell line growth inhibition, 48 h
786-0 renal = system: 786-0 renal
A498 renal = system: A498 renal
A549 NSCLC = system: A549 NSCLC
ACHN renal = system: ACHN renal
BT-549 breast = system: BT-549 breast
CAKI-1 renal = system: CAKI-1 renal
COLO 205 colon = system: COLO 205 colon
DU-145 prostate = system: DU-145 prostate
EKVX NSCLC = system: EKVX NSCLC
HCC-2998 colon = system: HCC-2998 colon
HCT-116 colon = system: HCT-116 colon
HCT-15 colon = system: HCT-15 colon
HL-60(TB) leukemia = system: HL-60(TB) leukemia
HOP-62 NSCLC = system: HOP-62 NSCLC
HOP-92 NSCLC = system: HOP-92 NSCLC
HS 578T breast = system: HS 578T breast
HT29 colon = system: HT29 colon
IGROV1 ovarian = system: IGROV1 ovarian
K-562 leukemia = system: K-562 leukemia
KM12 colon = system: KM12 colon
M14 melanoma = system: M14 melanoma
MALME-3M melanoma = system: MALME-3M melanoma
MCF7 breast = system: MCF7 breast
MDA-MB-231 breast = system: MDA-MB-231 breast
MDA-MB-435 = system: MDA-MB-435
MOLT-4 leukemia = system: MOLT-4 leukemia
NCI-H226 lung = system: NCI-H226 lung
NCI-H23 lung = system: NCI-H23 lung
NCI-H460 lung = system: NCI-H460 lung
NCI-H522 lung = system: NCI-H522 lung
NCI/ADR-RES ovarian = system: NCI/ADR-RES ovarian
OVCAR-3 ovarian = system: OVCAR-3 ovarian
OVCAR-4 ovarian = system: OVCAR-4 ovarian
OVCAR-5 ovarian = system: OVCAR-5 ovarian
OVCAR-8 ovarian = system: OVCAR-8 ovarian
RXF 393 renal = system: RXF 393 renal
SF-268 CNS = system: SF-268 CNS
SF-539 CNS = system: SF-539 CNS
SK-MEL-2 melanoma = system: SK-MEL-2 melanoma
SK-MEL-28 melanoma = system: SK-MEL-28 melanoma
SK-MEL-5 melanoma = system: SK-MEL-5 melanoma
SK-OV-3 ovarian = system: SK-OV-3 ovarian
SN12C renal = system: SN12C renal
SNB-19 CNS = system: SNB-19 CNS
SNB-75 CNS = system: SNB-75 CNS
SR leukemia = system: SR leukemia
SW-620 colon = system: SW-620 colon
T-47D breast = system: T-47D breast
TK-10 renal = system: TK-10 renal
UACC-257 melanoma = system: UACC-257 melanoma
UACC-62 melanoma = system: UACC-62 melanoma
UO-31 renal = system: UO-31 renal

CCOP(=O)(CCN1CCN(CCCCCOc2cc3c(cc2OC)C(=O)N2CCC[C@H]2C=N3)CC1)OCC
GI50 (786-0 renal): 12.5 µM | TGI (786-0 renal): > 100 µM | GI50 (A498 renal): 15 µM | TGI (A498 renal): 43 µM | GI50 (A549 NSCLC): 8.55 µM | TGI (A549 NSCLC): 34.8 µM | GI50 (ACHN renal): 18.5 µM | TGI (ACHN renal): 50.4 µM | GI50 (BT-549 breast): 5.96 µM | TGI (BT-549 breast): 31.7 µM | GI50 (CAKI-1 renal): 5.84 µM | TGI (CAKI-1 renal): 97.9 µM | GI50 (COLO 205 colon): 3.39 µM | TGI (COLO 205 colon): 12.9 µM | GI50 (DU-145 prostate): 17.8 µM | TGI (DU-145 prostate): 63.3 µM | GI50 (EKVX NSCLC): 19.5 µM | TGI (EKVX NSCLC): 47.8 µM | GI50 (HCC-2998 colon): 17.3 µM | TGI (HCC-2998 colon): 38.1 µM | GI50 (HCT-116 colon): 7.66 µM | TGI (HCT-116 colon): 80.8 µM | GI50 (HCT-15 colon): 80 µM | TGI (HCT-15 colon): > 100 µM | GI50 (HL-60(TB) leukemia): 1.82 µM | TGI (HL-60(TB) leukemia): 8.39 µM | GI50 (HOP-62 NSCLC): 23 µM | TGI (HOP-62 NSCLC): > 100 µM | GI50 (HOP-92 NSCLC): 12.6 µM | TGI (HOP-92 NSCLC): 94.9 µM | GI50 (HS 578T breast): 3.54 µM | TGI (HS 578T breast): 31.1 µM | GI50 (HT29 colon): 6.84 µM | TGI (HT29 colon): > 100 µM | GI50 (IGROV1 ovarian): 2.74 µM | TGI (IGROV1 ovarian): 18.7 µM | GI50 (K-562 leukemia): 2.37 µM | TGI (K-562 leukemia): > 100 µM | GI50 (KM12 colon): 12.1 µM | TGI (KM12 colon): 36.3 µM | GI50 (M14 melanoma): 8.01 µM | TGI (M14 melanoma): 25.8 µM | GI50 (MALME-3M melanoma): 18.4 µM | TGI (MALME-3M melanoma): 47.7 µM | GI50 (MCF7 breast): 1.89 µM | TGI (MCF7 breast): 23.8 µM | GI50 (MDA-MB-231 breast): 4.55 µM | TGI (MDA-MB-231 breast): > 100 µM | GI50 (MDA-MB-435): 3.36 µM | TGI (MDA-MB-435): 17.3 µM | GI50 (MOLT-4 leukemia): 2.16 µM | TGI (MOLT-4 leukemia): 6.37 µM | GI50 (NCI-H226 lung): 17.1 µM | TGI (NCI-H226 lung): 65.5 µM | GI50 (NCI-H23 lung): 16.6 µM | TGI (NCI-H23 lung): 38.4 µM | GI50 (NCI-H460 lung): 6.14 µM | TGI (NCI-H460 lung): 46.1 µM | GI50 (NCI-H522 lung): 1.93 µM | TGI (NCI-H522 lung): 7.8 µM | GI50 (NCI/ADR-RES ovarian): > 100 µM | TGI (NCI/ADR-RES ovarian): > 100 µM | GI50 (OVCAR-3 ovarian): 7.48 µM | TGI (OVCAR-3 ovarian): 34.1 µM | GI50 (OVCAR-4 ovarian): 14.9 µM | TGI (OVCAR-4 ovarian): 57.1 µM | GI50 (OVCAR-5 ovarian): 27.7 µM | TGI (OVCAR-5 ovarian): 76.6 µM | GI50 (OVCAR-8 ovarian): 31.2 µM | TGI (OVCAR-8 ovarian): > 100 µM | GI50 (RXF 393 renal): 1.77 µM | TGI (RXF 393 renal): 6.59 µM | GI50 (SF-268 CNS): 3.53 µM | TGI (SF-268 CNS): 49.6 µM | GI50 (SF-539 CNS): 3.6 µM | TGI (SF-539 CNS): 17.7 µM | GI50 (SK-MEL-2 melanoma): 12.5 µM | TGI (SK-MEL-2 melanoma): 32 µM | GI50 (SK-MEL-28 melanoma): 6.35 µM | TGI (SK-MEL-28 melanoma): 20.4 µM | GI50 (SK-MEL-5 melanoma): 3.62 µM | TGI (SK-MEL-5 melanoma): 23.8 µM | GI50 (SK-OV-3 ovarian): 23.9 µM | TGI (SK-OV-3 ovarian): 99.8 µM | GI50 (SN12C renal): 5.18 µM | TGI (SN12C renal): > 100 µM | GI50 (SNB-19 CNS): 5.65 µM | TGI (SNB-19 CNS): > 100 µM | GI50 (SNB-75 CNS): 1.35 µM | TGI (SNB-75 CNS): 8.85 µM | GI50 (SR leukemia): 1.39 µM | TGI (SR leukemia): 4.25 µM | GI50 (SW-620 colon): 4.47 µM | TGI (SW-620 colon): 30.5 µM | GI50 (T-47D breast): 2.44 µM | TGI (T-47D breast): 9.38 µM | GI50 (TK-10 renal): 22.8 µM | TGI (TK-10 renal): > 100 µM | GI50 (UACC-257 melanoma): 15.8 µM | TGI (UACC-257 melanoma): 37.4 µM | GI50 (UACC-62 melanoma): 7.86 µM | TGI (UACC-62 melanoma): 24.2 µM | GI50 (UO-31 renal): 17.7 µM | TGI (UO-31 renal): 44.8 µM
